The values below come from patent US9353089B2, “Compositions and methods for the treatment of malaria” (Saint Louis University, priority 2013, dated 2016).

The structures appear in SMILES notation. Like-named read-outs stand apart in the source and are kept apart here.

A word on the IC50: it is the concentration at which inhibition is half-maximal.

For assay [1], the system named is Plasmodium falciparum 3D7 (CQ-sensitive). Nature of the assay: In vitro antimalarial assay (malaria SYBR Green I-based fluorescence, MSF), 3D7. Type of assay: cell-based. The conditions noted are these: for inhibition of growth at 1 µM: 3D7, 72 h, read-out: 3D7 % inh @ 1 μM. Summed up: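 Asynchronous P. falciparum 3D7 cultures (0.5% parasitemia, 2% hematocrit) were exposed to serially diluted compounds, in quadruplicate. Growth was then quantified by SYBR Green I fluorescence after adding lysis buffer containing 0.2 μL/mL dye.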

Assay [2] concerns the target recombinant human BACE1 (Homo sapiens, UniProt P56817). The assay can be described thus: β-Secretase (BACE1) enzyme inhibition FRET assay. Type of assay: biochemical. The following applies: Table 13; read-out: BACE1 IC50. As for the experimental part: The enzymatic inhibition activity assays were determined using the fluorescence resonance energy transfer (FRET) assay. The assays were performed in a 384-well plate format. […] CatD and CatE were activated by incubation in assay buffer (0.1 M NaOAc, 0.2 M NaCl, pH 3.5) at room temperature for 30 min. Subsequently, the rhBACE-1 substrate (R&D Systems, catalog# ES004), the Cathepsin D and Cathepsin E substrate (R&D Systems, Catalog # ES001) were added accordingly to final concentration 20 μM to initiate the reaction. After 60 min incubation at room temperature, the time-resolved fluorescence at Ex/Em=360 nm/460 nm was measured on an EnVision multilabel plate reader (Perkin-Elmer). The analytical software, GraphPad Prism 5.0 (GraphPad Software, Inc., USA) was used to generate IC50 values via non-linear regression analysis, which are reported in Tables 8-13 below as BACE1 IC50 values.

The target of assay [3] is Plasmepsin-2 (PM-2; Plm II) (Plasmodium falciparum (isolate HB3), UniProt P46925). The assay can be described thus: Plasmepsin-2 enzyme inhibition assay. The format is biochemical. As for the experimental part:
Plasmepsin-2 (PM-2; Plm II) and Plasmepsin (PM-4; Plm IV) expression and purification was performed following the published protocols (Istvan E S and Goldberg D E, 2005). The final purified protein was activated by diluting the protein to 0.3 mg/mL in activating buffer (0.1 M citrate pH 4.5, 0.1% Tween-20, 50 mM dithiothreitol) and incubated at room temperature for 40 min, then the activated enzyme was diluted in assay buffer (50 mM sodium acetate pH 4.7, 0.01% Tween-20). The enzymatic inhibition reaction was performed in 384 well plates with a total volume of 20 μl. 10 μl of diluted PM-2 or PM-4 enzyme was added to the 384-well plate except blank wells (blank wells add 10 μL of assay buffer) and 20 nL of serials of diluted 1000× compounds were added to the wells with 520 Echo® Liquid Handling System (Labcyte Inc.). 10 μL PM-2 peptide substrate (AnaSpec, Cat#, 62050) with assay buffer was then added to final concentration of 20 μM to start the reaction. After incubation the reaction at room temperature for 60 min, the fluorescence intensity at Ex/Em=360 nm/535 nm was measured using EnVision multilabel plate reader (Perkin-Elmer). The IC50 values were obtained using Graph Pad Prism 4 and are reported in Tables 8 and 9 below as PM-2 IC50 values.

Where [4] appears, read: 3D7, read-out: 3D7 IC50 (μM), Table 13.
Setting [5] is: 3D7, read-out: Pf3D7 IC50 (μM), Table 10.
Setting [6] is: 3D7, Table 13, read-out: 3D7 IC50.

Sequence of Plasmepsin-2 (PM-2; Plm II) (P46925 125-453 limits assumed): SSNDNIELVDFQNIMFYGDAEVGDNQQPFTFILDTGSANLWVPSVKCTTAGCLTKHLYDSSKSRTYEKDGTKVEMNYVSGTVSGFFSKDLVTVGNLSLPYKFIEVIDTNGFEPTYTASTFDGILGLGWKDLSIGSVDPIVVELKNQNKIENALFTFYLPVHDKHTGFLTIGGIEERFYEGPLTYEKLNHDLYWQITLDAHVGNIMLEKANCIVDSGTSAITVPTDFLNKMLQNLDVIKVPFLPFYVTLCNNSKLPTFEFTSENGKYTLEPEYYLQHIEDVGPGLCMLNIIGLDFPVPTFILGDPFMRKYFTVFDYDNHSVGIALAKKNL
Sequence of recombinant human BACE1 (P56817 46-501 limits assumed): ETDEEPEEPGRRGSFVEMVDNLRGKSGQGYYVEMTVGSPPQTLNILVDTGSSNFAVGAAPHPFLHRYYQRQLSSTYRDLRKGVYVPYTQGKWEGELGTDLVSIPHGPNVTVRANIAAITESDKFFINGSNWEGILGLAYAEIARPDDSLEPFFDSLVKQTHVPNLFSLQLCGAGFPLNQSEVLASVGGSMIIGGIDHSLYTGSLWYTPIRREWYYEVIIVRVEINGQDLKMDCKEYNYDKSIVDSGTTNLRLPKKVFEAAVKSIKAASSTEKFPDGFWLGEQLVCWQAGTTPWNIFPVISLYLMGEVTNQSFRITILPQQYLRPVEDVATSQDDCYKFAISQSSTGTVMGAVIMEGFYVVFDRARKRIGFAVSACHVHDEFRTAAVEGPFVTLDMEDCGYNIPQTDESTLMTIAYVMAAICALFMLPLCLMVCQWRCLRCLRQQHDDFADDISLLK

Take `COc1ccc(C2(c3ccc(OC)cc3)NC(=N)N(C3CC3)C2=O)cc1` [Example 158, 3-cyclopropyl-2-imino-5,5-bis(4-methoxyphenyl)-imidazolidin-4-one]: the half-inhibitory concentration (IC50) in assay [1] (setting [4]) is 4.11 µM; in assay [1] (setting [5]) it was 4.11 µM; in assay [2] it was > 10000 nM; in assay [3] (Table 13, read-out: PM-2 IC50) it was 392 nM.
Regarding `COc1ccc(C2(c3ccc(OC)cc3)NC(=N)N(CC3CCN(C(=O)OC(C)(C)C)CC3)C2=O)cc1` [Example 313, tert-butyl 4-{[2-imino-4,4-bis(4-methoxyphenyl)-5-oxoimidazolidin-1-yl]methyl}piperidine-1-carboxylate], the inhibition of growth at 1 µM in assay [1] came to 27%. For the same compound, the IC50 in assay [2] is ~2200 nM; in assay [3] (Table 13, read-out: PM-2 IC50), 11 nM.
On the same counts, the results for `COc1ccc(C2(c3ccc(OC)cc3)NC(=N)N(Cc3ccccc3C#N)C2=O)cc1` [Example 305, 2-{[2-imino-4,4-bis(4-methoxyphenyl)-5-oxoimidazolidin-1-yl]methyl}benzonitrile] are 81%, 6700 nM and 9.3 nM.
Take `COc1ccc(C2(C3CC3)NC(=N)N(C3CCOCC3)C2=O)cc1-c1cccc(C#N)c1` (stereo not shown) [Example 491, 5′-(4-cyclopropyl-2-imino-5-oxo-1-(tetrahydro-2H-pyran-4-yl)imidazolidin-4-yl)-2′-methoxy-[1,1′-biphenyl]-3-carbonitrile]: the half-inhibitory concentration (IC50) in assay [1] (setting [4]) was found to be 0.47 µM; in assay [2], 8320 nM; in assay [3] (Table 13, read-out: PM-2 IC50), 51.7 nM.
In the same order, the values of `N#Cc1cncc(-c2cccc(C3(C4CC4)NC(=N)N(C4CCOCC4)C3=O)c2)c1` (stereo not shown) [Example 488, 5-(3-(4-cyclopropyl-2-imino-5-oxo-1-(tetrahydro-2H-pyran-4-yl)imidazolidin-4-yl)phenyl)nicotinonitrile] are 0.362 µM, 2980 nM and 443 nM.
In the same order, the values of `N#Cc1cncc(-c2cccc(C3(C4CC4)NC(=N)N(C4CCCCC4)C3=O)c2)c1` (stereo not shown) [Example 513, 5-(3-(1-cyclohexyl-4-cyclopropyl-2-imino-5-oxoimidazolidin-4-yl)phenyl)nicotinonitrile] are 0.4 µM, 6640 nM and 219 nM.
In the same order, the values of `COc1ccc(C2(C3CCCCC3)NC(=N)N(C3CCOCC3)C2=O)cc1` (stereo not shown) [Example 331, 5-cyclohexyl-2-imino-5-(4-methoxy-phenyl)-3-(oxan-4-yl)imidazolidin-4-one] are 0.354 µM, ~10000 nM and 58.1 nM.
For `COc1ccc(C2(c3ccc(OC)cc3)NC(=N)N(CC34CC5CC(CC(C5)C3)C4)C2=O)cc1` [Example 276, 3-(adamantan-1-ylmethyl)-2-imino-5,5-bis(4-methoxyphenyl)-imidazolidin-4-one], the concentration for half-maximal inhibition (IC50) was 0.336 µM in assay [1] (setting [4]); 7850 nM in assay [2]; 2 nM in assay [3] (Table 13, read-out: PM-2 IC50).
Turning to `COc1ccc(C2(C3CCCCC3)NC(=N)N(C3CCCCC3)C2=O)cc1` (stereo not shown) [Example 447, 3,5-dicyclohexyl-2-imino-5-(4-methoxyphenyl)imidazolidin-4-one], the half-maximal inhibitory concentration (IC50) in assay [1] (setting [4]) turned out to be 0.494 µM; in assay [2], 17300 nM; in assay [3] (Table 13, read-out: PM-2 IC50), 67.4 nM.
For the compound `COc1ccc(C2(c3ccc(OC)cc3)NC(=N)N(C3CCN(C(C)=O)CC3)C2=O)cc1` [Example 310, 3-(1-acetylpiperidin-4-yl)-2-imino-5,5-bis(4-methoxyphenyl)imidazolidin-4-one], the inhibition of growth at 1 µM in assay [1] was determined as 72%. In addition, the IC50 in assay [2] was ~2600 nM; in assay [3] (Table 13, read-out: PM-2 IC50) it was 5.84 nM.
In the case of `COc1ccc(C2(C3CCCC3)NC(=N)N(C3CCOCC3)C2=O)cc1` (stereo not shown) [Example 335, 5-cyclopentyl-2-imino-5-(4-methoxy-phenyl)-3-(oxan-4-yl)imidazolidin-4-one], the half-maximal inhibitory concentration (IC50) in assay [1] (setting [4]) is 0.377 µM; in assay [2] it was > 10000 nM; in assay [3] (Table 13, read-out: PM-2 IC50), 90.7 nM.
For `COc1ccc(C2(c3ccccn3)NC(=N)N(C3CCOCC3)C2=O)cc1` (stereo not shown) [Example 332, 2-imino-5-(4-methoxyphenyl)-3-(oxan-4-yl)-5-(pyridin-2-yl)-imidazolidin-4-one], in assay [1], the inhibition of growth at 1 µM is 25%. Further, the IC50 is > 10000 nM in assay [2] and 216 nM in assay [3] (Table 13, read-out: PM-2 IC50).
As for `COc1ccc(C2(c3cccnc3)NC(=N)N(C3CCOCC3)C2=O)cc1` (stereo not shown) [Example 323, 2-imino-5-(4-methoxyphenyl)-3-(oxan-4-yl)-5-(pyridin-3-yl)imidazolidin-4-one], the inhibition of growth at 1 µM in assay [1] turned out to be 31%. The half-maximal inhibitory concentration (IC50) in assay [2] was ~10000 nM; in assay [3] (Table 13, read-out: PM-2 IC50), 74.3 nM.
In the same order, the values of `COc1ccc(C2(c3ccncc3)NC(=N)N(C3CCOCC3)C2=O)cc1` (stereo not shown) [Example 334, 2-imino-5-(4-methoxyphenyl)-3-(oxan-4-yl)-5-(pyridin-4-yl)-imidazolidin-4-one] are 14%, > 10000 nM and 85.9 nM.
In the same order, the values of `COc1ccc(C2(c3ccc(OC)cc3)NC(=N)N(C3CCN(C(=O)CCN(C)C)CC3)C2=O)cc1` [Example 322, 3-{1-[3-(dimethylamino)propanoyl]piperidin-4-yl}-2-imino-5,5-bis(4-methoxyphenyl)imidazolidin-4-one] are 34%, > 10000 nM and 20.2 nM.
Take `COc1ccc(C2(c3ccc(OC)cc3)NC(=N)N(CC3CCN(C)CC3)C2=O)cc1` [Example 308, 2-imino-5,5-bis(4-methoxyphenyl)-3-[(1-methylpiperidin-4-yl)methyl]imidazolidin-4-one]: the 50% inhibitory concentration (IC50) in assay [1] (setting [4]) was 0.677 µM; in assay [2] it was > 10000 nM; in assay [3] (Table 13, read-out: PM-2 IC50), 75.4 nM.
For the compound `COc1ccc(C2(c3ccc(OC)cc3)NC(=N)N(Cc3ncccc3C)C2=O)cc1` [Example 302, 2-imino-5,5-bis(4-methoxyphenyl)-3-[(3-methylpyridin-2-yl)methyl]imidazolidin-4-one], the IC50 in assay [1] (setting [4]) is 1.07 µM; in assay [2], > 10000 nM; in assay [3] (Table 13, read-out: PM-2 IC50), 48.8 nM.
Turning to `COc1ccc(C2(c3cncnc3)NC(=N)N(C3CCOCC3)C2=O)cc1` (stereo not shown) [Example 333, 2-imino-5-(4-methoxyphenyl)-3-(oxan-4-yl)-5-(pyrimidin-5-yl)imidazolidin-4-one], the inhibition of growth at 1 µM in assay [1] worked out at 9%. The IC50 was > 10000 nM in assay [2] and 639 nM in assay [3] (Table 13, read-out: PM-2 IC50).
On to `COc1ccc(C2(c3ccc(OC)cc3)NC(=S)N(C3CCCCC3)C2=O)cc1`, for which the half-maximal inhibitory concentration (IC50) in assay [1] (3D7, Table 8, read-out: Pf 3D7 IC50) was > 5 µM; in assay [3] (Table 8, read-out: PM-II IC50), > 10000 nM.
For the compound `COc1cccc(C2(c3cccc(OC)c3)NC(=N)N(C3CCCC3)C2=O)c1` [Example 168, 3-cyclopentyl-2-imino-5,5-bis(3-methoxyphenyl)-imidazolidin-4-one], the 50% inhibitory concentration (IC50) in assay [1] (setting [6]) was found to be 1.09 µM; in assay [3] (Table 13, read-out: PM-2 IC50) it was 110 nM.
For `COc1cccc(C2(c3ccccc3)NC(=N)N(C3CCCCC3)C2=O)c1` (stereo not shown) [Example 153, 3-cyclohexyl-2-imino-5-(3-methoxyphenyl)-5-phenylimidazolidin-4-one], the IC50 in assay [1] (3D7, Table 11, read-out: Pf 3D7 IC50) amounted to 0.917 µM; in assay [1] (setting [6]) it was 0.917 µM; in assay [3] (Table 13, read-out: PM-2 IC50) it was 24.9 nM.
Take `N=C1NC(c2ccccc2)(c2ccccc2)C(=O)N1C1CCCCC1` [Example 100, 3-cyclohexyl-2-imino-5,5-diphenyl-imidazolidin-4-one]: the IC50 in assay [1] (setting [4]) is 3.85 µM; in assay [1] (setting [5]), 3.85 µM; in assay [2], > 10000 nM; in assay [3] (Table 13, read-out: PM-2 IC50), 28.7 nM.
Regarding `COc1ccc(C2(c3ccc(OC)cc3)NC(=N)N(Cc3ccccc3C)C2=O)cc1` [Example 303, 2-imino-5,5-bis(4-methoxyphenyl)-3-[(2-methylphenyl)-methyl]imidazolidin-4-one], the IC50 in assay [1] (setting [6]) came out at 1.01 µM; in assay [3] (Table 13, read-out: PM-2 IC50) it was 3.1 nM.
On the same counts, the results for `N=C1NC(c2ccc(Br)cc2)(c2ccc(Br)cc2)C(=O)N1C1CCCCC1` [Example 154, 5,5-bis(4-bromophenyl)-3-cyclohexyl-2-iminoimidazolidin-4-one] are 1.48 µM and 9.9 nM.
